Laboratory results as given in US7576086B2, “Aralkyl-alcohol peiperazine derivatives and their uses as antidepressant” (Shanghai Institute of Pharmaceutical Industry, priority 2002, dated 2009).

Legend:
[1] = tested on: Brain Synaptosome Uptake of 5-HT; test: Inhibition of [3H]-5-HT uptake by brain synaptosomes; type: biochemical, rats; conditions: 0.1 mmol/L; rat frontal cortex synaptosomes; inhibited ratio by Fluoxetine counts 100%
Excerpt: (§1) The trial of uptaking the mono-amines neurotransmitter by synaptosomes is now one of the common method to study the central nervous pharmacology. This method is not only used to study the action mechanism of the medicament, but also to look for new antidepressant drugs which act on this tache. […] The method is recounted as follows:
(§2) (1). Preparation of synaptosomes. According to the described method by literatures (a. Biochem Pharmacol 1973, 22: 311-322, b. Methods in Neurochemistry, Vol. 2, New York: Marcel Dakker, Inc, 1972, 1-52), rats were decapitated, the brains rapidly excised, and frontal cortex dissected out on ice-cold saline (4° C.). The 3 g tissue was homogenized in 30 ml of ice-cold 0.32M sucrose and then centrifuged (1500 g) for 10 min (4° C.). The pellet was discarded and the supernatant centrifuged (20000 g) for 30 min (4° C.). After refined, the pellet was resuspended in buffer and immediately used. Protein content was deter mined with kit of total protein.
(§3) (2). Uptake of 5-HT. According to the described method by literatures (Br J Pharmacol, 1997, 122: 302-306; b. 1992, 105: 147-151), in the tubes, 1.0 ml artificial cerebral fluid, 20 μl suspension of synaptosomes and 10 μl solution of compound were added. After mixing, the tubes were incubated 5 min in 37° C. Uptake was started by addition of 10 μl [^3H]-5-HT or [^3H]-NA (300 nM), after another mixing, the tubes were incubated again 5 min in 37° C. The reaction was stopped by cooling the tubes in ice, the samples were then filtered through glass fibre filters and washed twice with artificial cerebral fluid. After drying in 60-70° C., the filter membranes were put into scintillation tubes. Filter-bound radioactivity was counted by scintillation spectrometry. The difference in [^3H]-5-HT or [^3H]-NA at 37° C. and 0° C. was taken as a measure of active uptake.

[2] = tested on: Brain Synaptosome Uptake of NA; test: Inhibition of [3H]-NA uptake by brain synaptosomes; type: biochemical, rats; conditions: 0.1 mmol/L; rat frontal cortex synaptosomes; inhibited ratio by Desipramine counts 100%
Excerpt: as §1, §2, §3

mouse [3] = test: Tail suspension test of behavioural despair; type: in vivo; conditions: control 89.7±38.27
Method: (§4) Using the tail suspension test of “behavioural despair” and the mouse forced swimming test, and choosing Desipra mine as control medicament, to study the primary antidepressant effect of IV-19 that has the strong inhibited effect for both uptake of 5-HT and NA. The results are as follows:
(1). In the tail suspension test, IV-19 can diminish obviously the immobile times of mouse due to despair. The effect induced by 50 mg/kg IV-19 (20.2±16.05 sec) is the same as 10 mg/kg Desipra mine (27.5±21.93 sec), but a significant difference occurs when comparing with control (89.7±38.27).

mouse [4] = test: Mouse forced swimming test; type: in vivo; conditions: control 93.4±27.36
Method: as §4
(2). In the mouse forced swimming test, IV-19 also can diminish obviously the immobile times of mouse in water due to despair. As the results of tail suspension test, the effect induced by 50 mg/kg IV-19 (46.3±30.2 sec) is the same as 10 mg/kg Desipra mine (46±27.36 sec), but a significant difference occurs when comparing with control (93.4±27.36).

mice = test: Acute toxicity; type: in vivo; conditions: p.o. in mice, calculated with Bliss
[5] = tested on: S. Typhimurium TA97, TA98, TA100 and TA102; test: Bacterial reverse-mutation assay (Ames TS); type: cell-based
Excerpt: 4. Bacterial reverse-mutation assay (Ames TS) of IV-19
Bacillus: S. Typhimurium TA97, TA98, TA100 and TA102
All tested doses didn't induce the evident increase of revertants, Ames TS of […] is negative.

Molecule | Inhibited ratio of uptake for 5-HT(%) [1] [%] | Inhibited ratio of uptake for NA(%) [2] [%] | other results
N^1-(4-nitrobenzyl)-N^4-(2-phenylethyl-2-ol) piperazine dihydrochloride [IV-26] | 63 | 80 | 
N^1-benzyl-N^4-[1-(5-chloro-6-methoxyl-naphthalen-2-yl)-propane-2-yl-1-ol] piperazine dihydrochloride [IV-19] | 114 | 140 | immobile times of mouse, tail suspension test (mouse [3]; 50 mg/kg): 20.2 ± 16.05 s; immobile times of mouse in water, forced swimming test (mouse [4]; 50 mg/kg): 46.3 ± 30.2 s; LD50 (mice): about 1 g/kg; Ames TS result (increase of revertants) ([5]; TA97, TA98, TA100, TA102, without S9 and with S9, all tested doses): negative; inhibitory effect for the growth of bacteria ([5]; TA97, with S9, 5000 μg/utensil): inhibitory effect; inhibitory effect for the growth of bacteria ([5]; TA98, without S9, 5000 μg/utensil): inhibitory effect
COc1ccc2cc(C(O)C(C)N3CCN(Cc4ccc([N+](=O)[O-])cc4)CC3)ccc2c1Cl.Cl.Cl (centres unmarked) [IV-20, N^1-(4-nitrobenzyl)-N^4-[1-(5-chloro-6-methoxyl-naphthalen-2-yl)-propane-2-yl-1-ol] piperazine dihydrochloride] | 110 | 108 | 
N^1-(S-1-phenylethyl)-N^4-[1-(5-chloro-6-methoxyl-naphthalen-2-yl)-propane-2-yl-1-ol] piperazine dihydrochloride [IV-34] | 108 | 10 | 
N^1-benzyl-N^4-[2-(4-chlorophenyl)ethyl-2-ol] piperazine dihydrochloride [IV-4] | 85 | 51 | 
Cl.Cl.OC(c1ccccc1)C(c1ccccc1)N1CCN(Cc2ccccc2)CC1 (centres unmarked) [IV-8, N^1-benzyl-N^4-[(1,2-diphenyl)ethyl-2-ol] piperazine dihydrochloride] | <10 | 104 | 
COc1ccc2cc(C(O)C(C)N3CCN(CC(O)c4ccccc4)CC3)ccc2c1Cl.Cl.Cl (centres unmarked) [IV-18, N^1-(2-phenylethyl-2-ol)-N^4-[1-(5-chloro-6-methoxyl-naphthalen-2-yl)-propane-2-yl-1-ol] piperazine dihydrochloride] | 127 | 23 | 
CNCCCN1c2ccccc2CCc2ccccc21 [Desipra mine, reference compound] |  | 100 | immobile times of mouse, tail suspension test (mouse [3]; 10 mg/kg): 27.5 ± 21.93 s; immobile times of mouse in water, forced swimming test (mouse [4]; 10 mg/kg): 46 ± 27.36 s
COc1ccc2cc(C(O)C(C)N3CCN(c4cccc(Cl)c4)CC3)ccc2c1Cl.Cl.Cl (centres unmarked) [IV-17, N^1-(3-chlorophenyl)-N^4-[1-(5-chloro-6-methoxyl-naphthalen-2-yl)-propane-2-yl-1-ol] piperazine dihydrochloride] | 99 | 30 | 
COc1cc(CN2CCN(C(C)C(O)c3ccc4c(Cl)c(OC)ccc4c3)CC2)cc(OC)c1OC.Cl.Cl (centres unmarked) [IV-22, N^1-(3,4,5-trimethoxybenzyl)-N^4-[1-(5-chloro-6-methoxyl-naphthalen-2-yl)-propane-2-yl-1-ol] piperazine dihydrochloride] | 116 | 77 | 
N^1-(R-1-phenylethyl)-N^4-[1-(5-chloro-6-methoxyl-naphthalen-2-yl)-propane-2-yl-1-ol] piperazine dihydrochloride [IV-35] | 107 | 58 | 
N^1-(4-chlorobenzyl)-N^4-(phenylpropane-2-yl-3-ol) piperazine dihydrochloride [IV-2] | 82 | 62 | 
Cl.Cl.OC(CN1CCN(Cc2ccc(F)cc2)CC1)c1ccc(Cl)cc1 (centres unmarked) [IV-11, N^1-(4-fluorobenzyl)-N^4-[2-(4-chlorophenyl)ethyl-2-ol] piperazine dihydrochloride] | 81 | 101 | 
N^1-(4-fluorobenzyl)-N^4-(2-phenylethyl-2-ol) piperazine dihydrochloride [IV-6] | 79 | 107 | 
